Results published in patent US20030133908A1, “Treatment for intracranial tumors” (priority 2002, published 2003).

What was measured:
[1] = system: rat microglia; assay: TNF-α production by cultured rat microglia (rat-specific TNF-α ELISA); format: cell-based; details: in the presence of TGF-β
Description: (§1) The ability of cultured rat microglia to produce the soluble cytotoxic agents, TNF-αand nitric oxide, was examined. Rat microglia were harvested and plated in a 96-well plate at a density of 5×10^5 cells/well in 200 μl of serum-free CellGro complete medium (MediaTech, Inc.). In some wells, the medium was supplemented with different concentrations of LPS alone (from E. coli serotype […]; Sigma) while others were supplemented with a combination of LPS and recombinant rat IFN-γ (100 U/ml; R&D Systems). After 24 hours of incubation at 37° C., TNF-α protein in the supernatant of each well was quantified using a Cytoscreen rat-specific TNF-α ELISA kit (Biosource Intl., Camarillo, Calif.), and NO (nitrite) levels in the supernatant of each well were determined using the Griess reaction. All experiments were carried out in triplicate.

[2] = system: rat microglia; assay: Nitric oxide (nitrite) production by cultured rat microglia (Griess reaction); format: cell-based; details: in the presence of TGF-β
Description: as §1

[3] = system: RG2 glioma cells; assay: Microglia-mediated tumor cytotoxicity on co-cultured RG2 cells (modified MTT reduction assay); format: cell-based, rat; details: L-NMA exposure
Description: Co-cultures of microglia and RG2 cells were established and cytotoxicity assays were carried out as follows: isolated rat microglial cells (5×10^5 cells/well) were added to a 96-well plate containing 200 μl/well of complete medium. After allowing the cells to adhere for one hour, the medium was aspirated and the appropriate number of RG2 cells (from 2.5×10^4 to 1×10^6 to yield effector:target [E:T] ratios from 0.5:1 to 20:1) was added to the wells in 200 μl of fresh, complete medium. As controls, glioma cells and microglia were cultured separately in other wells of the plate. Microglia-mediated tumor cytotoxicity was measured using a modified MTT reduction assay.
All experiments were performed in quadruplicate. Some co-culture experiments were carried out on glass cover slips to provide visual documentation of cytotoxicity. The cover slips were immersed in paraformaldehyde solution and then subjected to cresyl violet staining.
To determine the contributions of TNF-α and NO to the tumoricidal activity of microglia, MTT cytotoxicity assays were carried out in the presence of TNF-α binding protein (TNF-bp; an inhibitor of TNF-α) and N^G-monomethyl-L-arginine (L-NMA; an inhibitor of NO production).
The effects of TGF-β on microglial tumor cytotoxicity were also investigated in MTT cytotoxicity assays in the presence of TGF-β.

Row | Compound | microglial production of TNF-α [1] | microglial production of NO [2] | killing of co-cultured RG2 by LPS/IFN-γ stimulated microglia [3]
1 | TGF-β | concurrent decreases | concurrent decreases | –
2 | CNC(=N)NCCC[C@H](N)C(=O)O [L-NMA, N^G-monomethyl-L-arginine] | – | – | significantly inhibited
